Measured values published in patent US11548875B2, “Inhibitor compounds for male contraception” (University of Washington, priority 2018, dated 2023).

Biological target: T1, ALDH1A1 (Homo sapiens, UniProt P00352)
T1 sequence (P00352 1-501): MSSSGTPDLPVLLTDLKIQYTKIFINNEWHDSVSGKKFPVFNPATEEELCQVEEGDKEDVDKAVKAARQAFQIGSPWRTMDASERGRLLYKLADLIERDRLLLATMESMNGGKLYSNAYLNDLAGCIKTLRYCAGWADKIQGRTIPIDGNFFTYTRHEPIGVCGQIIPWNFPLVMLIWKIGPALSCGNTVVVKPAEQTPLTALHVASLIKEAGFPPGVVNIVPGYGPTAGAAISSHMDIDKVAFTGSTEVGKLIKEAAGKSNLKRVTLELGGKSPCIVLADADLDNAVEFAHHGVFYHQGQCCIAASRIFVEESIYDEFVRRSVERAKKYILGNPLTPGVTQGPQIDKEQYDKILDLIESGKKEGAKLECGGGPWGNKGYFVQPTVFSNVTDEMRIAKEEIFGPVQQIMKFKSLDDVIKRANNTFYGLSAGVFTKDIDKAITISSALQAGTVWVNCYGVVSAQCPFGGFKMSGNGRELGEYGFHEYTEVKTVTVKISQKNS
Assay: Inhibitor screening using purified enzymes: ALDH1A1 activity, retinoic acid production by HPLC
Assay type: biochemical
Details: purified enzyme
From the text: ALDHs were cloned into bacterial expression vector for in vitro enzyme assays and into mammalian expression vectors for cell-based enzyme assays. Human ALDH1A1 cDNA and human ALDH2 cDNA were purchased from OriGene (SC321535) and Open Biosystems (MHS4771-99611182), respectively. and human ALDH1A2 cDNA was cloned from human testis RNA using RT-PCR (Population Division of the Department of Economic and Social Affairs of the United Nations Secretariat. World Population prospects: the 2008 revision. Available at http://www.un.org/esa/population/ (Retrieved Sep. 30, 2011)). For bacterial expression, an open reading frame of ALDH1A1 and ALDH2 were subcloned into the pETite vector (Lucigen) with a 5′ histidine-tag and that of ALDH1A2 into a pET28 vector (Novagen) with a 3′ histidine-tag. Correct frame and sequences were verified through DNA sequencing (UW DNA sequencing facility). ALDHs were induced with 1 mM IPTG and purified using His.Bind resin (Novagen, San Diego, Calif.) and stored in a buffer containing 20 mM Hepes (pH 8), 150 mM KCl and 1 mM EDTA as previously described (Fierce, Y., de Morais Vieira, M., Piantedosi, R., Wyss, A., Blaner, W. S., and Paik, J. (2008) In vitro and in vivo characterization of retinoid synthesis from beta-carotene. Archives of biochemistry and biophysics 472, 126-138).
ALDH1A1 and ALDH1A2 activity was determined as previously reported (Beedle M T, Stevison F, Zhong G, Topping T, Hogarth C, Isoherranen N, Griswold M D. Sources of All-Trans Retinal Oxidation Independent of the Aldehyde Dehydrogenase 1A Isozymes Exist in the Postnatal Testis. Biol Reprod. 2018 Sep. 21. doi: 10.1093/biolre/ioy200). Briefly, purified enzymes were incubated in a buffer containing 10 mM HEPES buffer (pH 8.0), 150 mM potassium chloride and 2 mM EDTA with 2 mM NAD. Retinoic acid production was determined using HPLC as previously reported (Amory J K, Muller C H, Shimshoni A J, Isoherranen N, Paik J, Moreb J S, Amory D W, Evanoff R, Goldstein A S, Griswold M D. Suppression of spermatogenesis by bisdichloroacetyldiamines is mediated by inhibition of testicular retinoic acid biosynthesis. Journal of Andrology 2011; 32(1):111-119). Inhibitors were diluted in DMSO and added to the reactions. […] For initial screening of inhibitors for ALDH1A2, 1 μg ALDH1A2, 5 μM all-trans-retinal and 5 μM inhibitors were incubated for 15 min at 37° C. […] For this purpose, 0.5 μg ALDH1A2 and […] were incubated for 5 minutes at 37° C. with varying concentrations of inhibitors. To determine specificity toward ALDH1A2, the IC50 for […]

IC50	Compound
0.249 µM	N#Cc1ccc(-n2cc(C(=O)Nc3cccc(F)c3)c(-c3ccc(NC(=O)C(Cl)Cl)cc3)n2)cc1 [Compound 316a, 3-(4-Dichloroacetamidophenyll)-N-(3-fluorophenyl)-1-(4-cyanophenyl)-1H-pyrazole-4-carboxamide]
0.675 µM	O=C(c1ccccc1)N1CCN(c2ccc([N+](=O)[O-])c(N3CCCC3)c2)CC1 [Compound 339, Phenyl-1-{4-[4-nitro-3-(pyrrolidin-1-yl)phenyl]piperazin-1-yl}methanone]
1.65 µM	O=C(c1cccc(Cl)c1)N1CCN(c2ccc([N+](=O)[O-])c(N3CCCC3)c2)CC1 [Compound 341, 3-Chlorophenyl-1-{4-[4-nitro-3-(pyrrolidin-1-yl)phenyl]piperazin-1-yl}methanone]
0.453 µM	O=C(c1ccc[nH]1)N1CCN(c2ccc([N+](=O)[O-])c(N3CCCC3)c2)CC1 [Compound 344, {4-[4-Nitro-3-(pyrrolidin-1-yl)phenyl]piperazin-1-yl}(1H-pyrrol-2-yl)methanone]
1.07 µM	CC(=O)n1cccc1C(=O)N1CCN(c2ccc([N+](=O)[O-])c(N3CCCC3)c2)CC1 [Compound 347, {4-[4-Nitro-3-(pyrrolidin-1-yl)phenyl]piperazin-1-yl}(1-acetyl-pyrrol-2yl)methanone]
0.23 µM	Cn1cccc1C(=O)N1CCN(c2ccc(NC(=O)C(Cl)Cl)c(N3CCCC3)c2)CC1 [Compound 367, 1-[4-(4-N-Dichloroacetyl-3-(pyrrolidin-1-yl)phenyl]piperazin-1-yl](1-methyl-1H-pyrrol-2-yl)methanone]
0.3 µM	Cn1cccc1C(=O)N1CCN(c2ccc(NC(=O)CCl)c(N3CCCC3)c2)CC1 [Compound 372, 1-[4-(4-N-Chloroacetyl-3-(pyrrolidin-1-yl)phenyl]piperazin-1-yl](1-methyl-1H-pyrrol-2-yl)methanone]
1.44 µM	Cn1cccc1C(=O)N1CCN(c2ccc(-c3ccc([N+](=O)[O-])cc3)c(N3CCCCC3)c2)CC1 [Compound 373]

Compound	IC50
3-(4-Acryloylphenyl)-1-phenyl-1H-pyrazole-4-carbaldehyde [Compound 309]	0.005 µM
3-{4-[(Chloroacetyl)amino]phenyl}-N-(3-fluorophenyl)-1-phenyl-1H-pyrazole-4-carboxamide [Compound 294]	0.003 µM
